Our source for the IC50 and melting point values is patent publication US8993565B2, “(6-oxo-1,6-dihydropyrimidin-2-yl)amide derivatives, preparation thereof and pharmaceutical use thereof as AKT(PKB) phosphorylation inhibitors” (Sanofi, priority 2009, dated 2015).

pIC50: −log10 of the molar value. Where only a bound is given, the exact number is not on record here.

In data set [1] the test system is AKT protein phosphorylated on serine 473 (pAKT-S473). As to the kind of experiment: Study of pAKT expression in PC3 human prostate carcinoma cells measured by western blotting (Test A). The format is cell-based. The settings on record: PC-3, inhibition of AKT phosphorylation (pAKT-S473), 1 to 2 hours incubation, absolute IC50, mean of two experiments. (In western blotting, separated proteins are transferred to a membrane and probed.)

Data set [2] has as its system AKT protein phosphorylated on serine 473 (P-AKT-S473). Nature of the data set: Study of pAKT expression in PC3 human prostate carcinoma cells measured by the MSD Multi-spot Biomarker Detection technique (Test B). The following applies: PC-3, inhibition of AKT phosphorylation (P-AKT-S473), MSD sandwich immunoassay, 1 to 2 h incubation, absolute IC50, mean of 2 experiments. In kind it is cell-based. The procedure, abridged: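 Lysate P-AKT-S473 quantified by MSD electrochemiluminescent sandwich immunoassay; inhibition vs DMSO and cell-free background, IC50 averaged over 2 experiments.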

The compound `O=C(Cc1nc(N2CCOCC2)cc(=O)[nH]1)Nc1cccc(C2CC2)c1` [Example 36, N-(3-cyclopropylephenyl)-2-[4-(morpholin-4-yl)-6-oxo-1,6-dihydropyrimidin-2-yl]acetamide] yielded a melting point of 246 °C. In data set [1], this compound showed a pIC50 of 6.70.

Take `COCc1cc(NC(=O)Cc2nc(N3CCOCC3)cc(=O)[nH]2)ccc1F` [Example 73, N-[4-fluoro-3-(methoxymethyl)phenyl]-2-[4-(morpholin-4-yl)-6-oxo-1,6-dihydropyrimidin-2-yl]acetamide]: the melting point stood at 220 °C. In data set [1], this compound showed a pIC50 of 6.19.

Turning to `CC(C)(C)OC(=O)NCCc1cccc(NC(=O)Cc2nc(N3CCOCC3)cc(=O)[nH]2)c1` [Example 46, 2-methylpropan-2-yl {2-[3-({[4-(morpholin-4-yl)-6-oxo-1,6-dihydropyrimidin-2-yl]acetyl}amino)phenyl]ethyl}-carbamate], the melting point worked out at 194 °C. In addition, the pIC50 in data set [1] was 5.60.

For `Cn1c(CC(=O)Nc2cccc(Br)c2)nc(N2CCOCC2)cc1=O` [Example 69, N-(3-bromophenyl)-2-[1-methyl-4-(morpholin-4-yl)-6-oxo-1,6-dihydropyrimidin-2-yl]acetamide], the melting point worked out at 266 °C. This compound showed a pIC50 in data set [1] of 6.60.

For `CC1Cc2ccccc2N1C(=O)Cc1nc(N2CCOCC2)cc(=O)n1C` (stereo not drawn) [Example 123, 3-methyl-2-[2-(2-methyl-2,3-dihydro-1H-indol-1-yl)-2-oxoethyl]-6-(morpholin-4-yl)pyrimidin-4(3H)-one], the melting point came to 148 °C. The same compound showed a pIC50 in data set [2] of 7.11.

In turn, `O=C(Cc1nc(N2CCOCC2)cc(=O)[nH]1)Nc1ccc(F)c(CO)c1` [Example 35, N-[4-fluoro-3-(hydroxymethyl)phenyl]-2-[4-(morpholin-4-yl)-6-oxo-1,6-dihydropyrimidin-2-yl]acetamide] showed a melting point greater than 260 °C. The pIC50 in data set [1] is 5.00.

For the compound `O=C(Cc1nc(N2CCOCC2)cc(=O)[nH]1)Nc1cc(F)cc(F)c1` [Example 13, N-(3,5-difluorophenyl)-2-[4-(morpholin-4-yl)-6-oxo-1,6-dihydropyrimidin-2-yl]acetamide], the melting point is greater than 260 °C. Besides, in data set [2], the pIC50 is 7.15.

Regarding `Cn1c(CC(=O)N2CCc3c(F)cccc32)nc(N2CCOCC2)cc1=O` [Example 102, 2-[2-(4-fluoro-2,3-dihydro-1H-indol-1-yl)-2-oxoethyl]-3-methyl-6-(morpholin-4-yl)pyrimidin-4(3H)-one], the melting point is 244 °C. Further, the pIC50 in data set [2] was 7.37.

`Cn1c(CC(=O)Nc2cccc3sccc23)nc(N2CCOCC2)cc1=O` [Example 130, N-(1-benzothiophen-4-yl)-2-[1-methyl-4-(morpholin-4-yl)-6-oxo-1,6-dihydropyrimidin-2-yl]acetamide] came in with a melting point of 254 °C. In data set [2], the pIC50 is 7.15.

Compound `O=C(Cc1nc(N2CCOCC2)cc(=O)[nH]1)N1c2ccccc2CC1CO` (stereo not drawn) [Example 106, 2-{2-[2-(hydroxymethyl)-2,3-dihydro-1 H-indol-1-yl]-2-oxoethyl}-6-(morpholin-4-yl)pyrimidin-4(3H)-one] gave a melting point of 200 °C. Further, the pIC50 in data set [2] was 7.57.

On to `COc1cccc2c1CCN2C(=O)Cc1nc(N2CCOCC2)cc(=O)n1C` [Example 110, 2-[2-(4-methoxy-2,3-dihydro-1H-indol-1-yl)-2-oxoethyl]-3-methyl-6-(morpholin-4-yl)pyrimidin-4(3H)-one], for which the melting point was 229 °C. The compound further gave a pIC50 in data set [2] of 6.56.

`Cc1cccc2c1CCN2C(=O)Cc1nc(N2CCOCC2)cc(=O)n1C` [Example 114, 3-methyl-2-[2-(4-methyl-2,3-dihydro-1H-indol-1-yl)-2-oxoethyl]-6-(morpholin-4-yl)pyrimidin-4(3H)-one] yielded a melting point of 239 °C. The pIC50 in data set [2] is 7.59.

In turn, `Cn1c(CC(=O)N2CCc3c(Br)cccc32)nc(N2CCOCC2)cc1=O` [Example 116, 2-[2-(4-bromo-2,3-dihydro-1 H-indol-1-yl)-2-oxoethyl]-3-methyl-6-(morpholin-4-yl)pyrimidin-4(3H)-one] registered a melting point of 226 °C. This compound showed a pIC50 in data set [2] of 7.29.

`COCC1Cc2ccccc2N1C(=O)Cc1nc(N2CCOCC2)cc(=O)[nH]1` (stereo not drawn) [Example 120, 2-{2-[2-(methoxymethyl)-2,3-dihydro-1H-indol-1-yl]-2-oxoethyl}-6-(morpholin-4-yl)pyrimidin-4(3H)-one] gave a melting point of 112 to 115 °C. In data set [2], this compound had a pIC50 of 7.96.

`Cn1c(CC(=O)Nc2cccc(C3CC3)c2)nc(N2CCOCC2)cc1=O` [Example 82, N-(3-cyclopropylphenyl)-2-[1-methyl-4-(morpholin-4-yl)-6-oxo-1,6-dihydropyrimidin-2-yl]acetamide] yielded a melting point of 216 °C. In addition, the negative logarithm of the IC50 (pIC50) in data set [2] was 6.88.

For `O=C(Cc1nc(N2CCOCC2)cc(=O)[nH]1)N1CCc2c(CO)cccc21` [Example 132, 2-{2-[4-(hydroxymethyl)-2,3-dihydro-1H-indol-1-yl]-2-oxoethyl}-6-(morpholin-4-yl)pyrimidin-4(3H)-one], the melting point was determined as 234 °C. For the same compound, the pIC50 in data set [2] is 6.27.

Regarding `O=C(Cc1nc(N2CCOCC2)cc(=O)[nH]1)N1CCCc2c(Cl)cccc21` [Example 131, 2-[2-(5-chloro-3,4-dihydroquinolin-1(2H)-yl)-2-oxoethyl]-6-(morpholin-4-yl)pyrimidin-4(3H)-one], the melting point turned out to be 238 °C. Moreover, the pIC50 in data set [2] was 7.39.

On to `Cn1c(CC(=O)N2CCc3cc(F)c(F)cc32)nc(N2CCOCC2)cc1=O` [Example 127, 2-[2-(5,6-difluoro-2,3-dihydro-1H-indol-1-yl)-2-oxoethyl]-3-methyl-6-(morpholin-4-yl)pyrimidin-4(3H)-one], for which the melting point was found to be 250 °C. Moreover, the pIC50 in data set [2] is 7.21.

The compound `O=C(Cc1nc(N2CCOCC2)cc(=O)[nH]1)Nc1ccccc1O` [Example 37, N-(2-hydroxyphenyl)-2-[4-(morpholin-4-yl)-6-oxo-1,6-dihydropyrimidin-2-yl]acetamide] showed a melting point greater than 260 °C. This compound also gave a pIC50 in data set [1] of 5.00.

Compound `CC1CN(C(=O)Cc2nc(N3CCOCC3)cc(=O)n2C)c2ccccc21` (stereo not drawn) [Example 119, 3-methyl-2-[2-(3-methyl-2,3-dihydro-1H-indol-1-yl)-2-oxoethyl]-6-(morpholin-4-yl)pyrimidin-4(3H)-one] had a melting point of 225 °C. In addition, the negative logarithm of the IC50 (pIC50) in data set [2] is 6.71.

The compound `Cn1c(CC(=O)Nc2ccc(F)c(C3CC3)c2)nc(N2CCOCC2)cc1=O` [Example 86, N-(3-cyclopropyl-4-fluorophenyl)-2-[1-methyl-4-(morpholin-4-yl)-6-oxo-1,6-dihydropyrimidin-2-yl]acetamide] returned a melting point of 245 °C. The same compound gave a pIC50 in data set [2] of 7.59.

On to `O=C(Cc1nc(N2CCOCC2)cc(=O)[nH]1)Nc1cccc(F)c1F` [Example 12, N-(2,3-difluorophenyl)-2-[4-(morpholin-4-yl)-6-oxo-1,6-dihydropyrimidin-2-yl]acetamide], for which the melting point was determined as 248 °C. Moreover, in data set [1], the negative-log IC50 (pIC50) was 6.13.

In turn, `CCOc1cccc2c1CCN2C(=O)Cc1nc(N2CCOCC2)cc(=O)[nH]1` [Example 121, 2-[2-(4-ethoxy-2,3-dihydro-1H-indol-1-yl)-2-oxoethyl]-6-(morpholin-4-yl)pyrimidin-4(3H)-one] yielded a melting point of 257 °C. The same compound showed a negative-log IC50 (pIC50) in data set [2] of 7.36.

`Cn1c(CC(=O)N2CCc3ccc(F)cc32)nc(N2CCOCC2)cc1=O` [Example 124, 2-[2-(6-fluoro-2,3-dihydro-1H-indol-1-yl)-2-oxoethyl]-3-methyl-6-(morpholin-4-yl)pyrimidin-4(3H)-one] yielded a melting point of 223 °C. The compound also had a pIC50 in data set [2] of 6.91.

Compound `CC(C)C(C(=O)Nc1ccc(F)cc1)c1nc(N2CCOCC2)cc(=O)[nH]1` (stereo not drawn) [Example 72, N-(4-fluorophenyl)-3-methyl-2-[4-(morpholin-4-yl)-6-oxo-1,6-dihydropyrimidin-2-yl]butanamide] came in with a melting point of 266 °C. For the same compound, the pIC50 in data set [2] was 7.05.

For the compound `CN(C)CC1CN(C(=O)Cc2nc(N3CCOCC3)cc(=O)[nH]2)c2ccccc21` (stereo not drawn) [Example 115, 2-[2-(3-dimethylaminomethyl-2,3-dihydroindol-1-yl)-2-oxoethyl]-6-morpholin-4-yl-3H-pyrimidin-4-one], the melting point is 243 °C. The compound further had a pIC50 in data set [2] of 8.00.

Compound `CCn1c(CC(=O)Nc2ccc(F)cc2)nc(N2CCOCC2)cc1=O` [Example 70, 2-[1-ethyl-4-(morpholin-4-yl)-6-oxo-1,6-dihydropyrimidin-2-yl]-N-(4-fluorophenyl)acetamide] yielded a melting point of 238 °C. In data set [2], this compound gave a pIC50 of 6.71.

The pIC50 is the negative decadic logarithm of the IC50, by convention in mol/L. The melting point is the temperature of the solid-liquid transition.
